Source: patent US20090253771A1, “INHIBITION OF GLIOTOXIN” (priority 2006, published 2009)
Where a SMILES comes first, the peptide text is derived from it. The star is where a group is joined. Cbz = O=C(OCc1ccccc1)*; CH2F = FC*

Experiments:
[1] = test system: mitochondria isolated from MEFs or FDMs; test: Cytochrome c release from isolated mitochondria; format: biochemical, mouse
Protocol: 8×10^7 MEFs or FDMs were centrifuged and washed once in PBS. The cell pellets were resuspended in 500 μl MSH-Buffer (210 mM mannitol; 70 mM sucrose; 20 mM HEPES; 1 mM EDTA; pH 7,5; 100 μM PMSF; 400 ng/ml pepstatin; 10 μg/ml leupeptin; 10 μg/ml aprotinin and 5 μg/ml cytochalasin B). The resuspended cell pellet was incubated on ice for 15 min before the cells were broken by passaging 25 times through a 23-gauge needle. The lysate was centrifuged at 500×g for 5 min to remove cell debris and nuclei. A crude mitochondrial pellet was then obtained by centrifugation at 10,000×g for 15 min and resuspended in MSH-Buffer. The isolated mitochondria were incubated with different concentrations of GT (10 μM, 20 μM and 50 μM), or 40 nM of recombinant tBid as a positive control at 37° C. for 4 hr. Following incubation, the mitochondria were pelleted, and both, pellet and supernatant were tested for cytochrome c release by SDS-PAGE.

[2] = test system: mouse embryonic fibroblasts (MEFs); test: Nuclear translocation of AIF (confocal microscopy); format: cell-based; conditions: 1 μM GT, 4 h
Protocol: (§1) Cytochrome c release was quantified by FACS analysis as recently described [Waterhouse, 2003]. Briefly, 1×10^6 of MEFs were mildly permeabilized with 25 μg/ml digitonin plus 100 mM KCl on ice for 5 min. This lead to the cellular loss of cytosolic cytochrome c. Cells were washed once with cold PBS, fixed in 4% PFA, permeabilized with 0.05% saponin and 3% BSA and then incubated with the anti-cytochrome c mAb 6H2.B4 (BD Pharmingen) or mouse IgG isotype control (Jackson) followed by anti-mouse-FITC secondary antibody (Jackson). The cells were resuspended in 100 μl PFA in PBS and analysed by FACS with a FACScan (BD) and CellQuest® software. For the analysis of the nuclear translocation of AIF, cells were fixed, mounted on poly-L-lysine coverslides and stained with a rabbit polyclonal antiAIF antibody (Sigma) as described [Pardo, 2001]. Afterwards the cells were analysed by confocal microscopy using a Leica SP2 confocal microscope and Imaris® software.

[3] = test system: mouse embryonic fibroblasts (MEFs); test: Mitochondrial membrane potential (DiOC6(3)) and ROS generation (2-HE) by FACS; format: cell-based; conditions: 1 μM GT, 4 h; for effect on GT-induced ROS production: 15 mM scavenger
Protocol: (§2) Gliotoxin (GT) was purified from Penicillium terlikowskii as described [Waring, 1988]. For apoptosis induction, 4×10^5 MEFs were incubated with different concentrations of GT or staurosporine (Sigma) for 4 h and apoptosis assays were performed as described below. In some cases the general caspase inhibitor Ac-ZVAD-fmk (Bachem) or the ROS scavengers N-acetylcysteine (NAC) (Sigma) or MnTBAP (Calbiochem) were added as described [Pardo, 2004]. To test the inhibitory potency of Ac-ZVAD-.fmk, MBL-2. Fas cells were incubated with anti-Fas mAb Jo-2 (1 μg/ml) for 24 h in the presence or absence of 100 μM of the caspase inhibitor and cell death was analysed by trypan blue exclusion. Nuclei were stained with 10 μg/ml of Hoechst 33342 (Molecular Probes).
(§3) Phosphatidylserine (PS) exposure and propidium iodide (PI) uptake was analysed by FACS or fluorescence microscopy as described [Pardo, 2004] using the annexin V-FITC kit from BD Pharmingen. The mitochondrial membrane potential was measured with the fluorescent probe 3,3′-dihexyloxacarbocyanine iodide (DiOC6(3), Molecular Probes) and ROS generation with 2-hydroxiethidine (2-HE, Molecular Probes) as described [Pardo, 2004].

Fas-negative cells = test: GT-induced pro-apoptotic processes in Fas-negative cells (cell adhesion / cell death, neutral red); format: cell-based
Protocol: This pro-apoptotic activity may be inhibited by GT-inhibitors, e.g. anti-GT-antibodies. The degree of cell adhesion and/or cell death may be determined by standard methods. For example, the cells may be labelled with a suitable dye, e.g. neutral red, allowed to adhere and incubated subsequently with GT in the presence of a test compound. After an appropriate incubation time, the non-adherent cells may be removed and the remaining adherent cells and/or the removed cells may be determined. For example, the dye neutral red may be released from cells by […]/ethanol. Non-adherent cells equating with cell death may be quantitatively determined, e.g. with an optical detection method, preferably by measuring the absorbance at 540 nm according to standard methods, e.g. in a microplate reader.
Screening for antifungal agents capable of inhibiting the interaction between GT and Bak can be performed by means of the methylcholanthrene-induced cell line MC.Fas^−/− (date of deposition at DSMZ: 4 May 2006) stained with the vital dye Neutral Red. […] Cell loss equates with cell death resulting from GT-induced pro-apoptotic processes, and is quantified automatically by loss of absorbance at 540 nm using a microplate reader.

[4] = test system: mouse embryonic fibroblasts (MEFs); test: Gliotoxin-induced apoptosis in MEFs: nuclear fragmentation (Hoechst 33342), PS exposure (annexin V-FITC) and PI uptake; format: cell-based; conditions: 1 μM GT, 4 h
Protocol: as §2, §3

caspase-3 = test: Caspase-3 activation (FACS, antibody against the active form); format: cell-based, mouse; conditions: 1 μM GT, 4 h; wt and Bax−/− MEFs
Protocol: Cells were fixed with 4% paraformaldehyde (PFA) and incubated with a monoclonal antibody against the active form of caspase-3 (clone C92605, BD Pharmingen). Following incubation with a FITC-labeled secondary antibody, the cells were analyzed by FACS as described [Pardo, 2004].

[5] = test system: mouse embryonic fibroblasts (MEFs); test: Cell death (trypan blue exclusion) and cell detachment by microscopic inspection; format: cell-based
Protocol: as §2

[6] = test system: mouse embryonic fibroblasts (MEFs); test: Cytochrome c release on cells (FACS); format: cell-based; conditions: 1 μM GT, 4 h
Protocol: as §1

Bak = biological target: T1, Bak (Mus musculus, UniProt O08734); test: Conformational change of Bak (FACS, N-terminus-specific antibody); format: cell-based; conditions: 4 h; for effect on GT-induced N-terminal opening of Bak: 100 μM Z-VAD.fmk or 15 mM NAC or MnTBAP
T1 construct: endogenous in cells; host or cells: SV40-transformed mouse embryonic fibroblasts (wt, Bid-/-; Bak-/-xBax-/- as negative control)
T1 sequence (O08734 1-209): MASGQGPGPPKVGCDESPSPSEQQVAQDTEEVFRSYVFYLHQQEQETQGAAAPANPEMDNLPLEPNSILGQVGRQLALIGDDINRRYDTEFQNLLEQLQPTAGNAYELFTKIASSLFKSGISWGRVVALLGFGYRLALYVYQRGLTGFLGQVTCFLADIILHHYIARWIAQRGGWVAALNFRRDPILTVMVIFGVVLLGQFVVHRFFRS
Protocol: (§4) MEFs were fixed in 4% PFA, permeabilized with 0.1% saponin in PBS/5% fetal calf serum (FCS) and incubated with 2 μg/ml rabbit polyclonal anti-Bak (NT, Upstate Biotechnology) 5 μg/ml rabbit polyclonal anti-Bax (NT, Upstate Biotechnology) or 5 μg/ml rabbit purified IgG (control). After two washes with 0.1% saponin in PBS, the cells were incubated with anti rabbit-FITC antibody in 0.1% saponin/PBS/5% FCS, washed twice in 0.1% saponin/PBS, resuspended in 1% PFA/PBS and analysed by FACS with a FACScan (BD) and CellQuest® software.

MBL-2.Fas cells = test: Anti-Fas mAb Jo-2 induced cell death (trypan blue exclusion), test of the caspase inhibitor; format: cell-based; conditions: 1 μg/ml Jo-2, 24 h; 100 μM inhibitor
Protocol: as §2

Bax = test: Conformational change of Bax (FACS, N-terminus-specific antibody); format: cell-based, mouse; conditions: staurosporine 1 and 5 μM, 4 h, MEFs
Protocol: as §4

[7] = 10, 20 or 50 μM GT, 4 h, 37° C.

Compound: CN1C(=O)[C@]23CC4=CC=C[C@H](O)[C@H]4N2C(=O)[C@@]1(CO)SS3 [GT, Gliotoxin]
- cytochrome c release from isolated mitochondria [1, 7]: dose-dependent manner
- cytochrome c release from isolated mitochondria compared with 40 nM recombinant tBid [1, 7]: as efficient as that induced by recombinant tBid
- cytochrome c release from isolated mitochondria ([1]; mitochondria from Bak−/− or Bak−/−×Bax−/− MEFs or FDMs): absent
- localization of AIF ([2]; Bak−/− and Bak−/−×Bax−/− MEFs): retained most of the AIF in the mitochondria
- cells with cytosolic localization and nuclear translocation of AIF ([2]; wt and Bax−/− MEFs): a high portion
- ROS production ([3]; wt, Bax−/− and Bid−/− MEFs): parallel increase
- mitochondrial membrane potential (Δψm) ([3]; wt, Bax−/− and Bid−/− MEFs): significant reduction
- induction of pro-apoptotic processes resulting in loss of cell adhesion and cell death (Fas-negative cells): dose-dependent manner
- apoptotic cells (PS exposed, annexin-V staining, without plasma membrane disruption) ([4]; wt MEFs): ~50%
- nuclear fragmentation ([4]; wt MEFs, Hoechst 33342): nuclear fragmentation in the majority
- number of annexin-V/PI positive cells vs mock treated cells ([4]; Bak−/− and Bak−/−×Bax−/− MEFs): did not
- number of annexin-V/PI positive cells vs mock treated cells ([4]; wt, Bak−/− (so in the source) and Bid−/− MEFs): significantly increased
- caspase-3 activation (caspase-3): significantly activated
- GT-mediated cell death (trypan blue exclusion) ([5]; increasing amounts of GT, 4 h, Bak−/− and Bak−/−×Bax−/− MEFs, not wt or Bax−/−): significantly reduced
- GT-induced loss of cell adherence ([5]; increasing amounts of GT, 4 h, Bax- and/or Bak-deficient MEFs vs wt): only marginally, if at all, diminished
- mitochondrial cytochrome c ([6]; Bak−/− or Bak−/−×Bax−/− MEFs): retained
- mitochondrial cytochrome c ([6]; wt and Bax−/− MEFs): reduced
- N-terminal epitope exposure (conformational change) of Bak (Bak; 1 μM GT, wt MEFs): readily induce N-terminal epitope exposure in Bak

Compound: O=C(O)c1ccc(/C2=C3\C=CC(=N3)/C(c3ccc(C(=O)O)cc3)=c3/cc/c4[n]3[Mn]([Cl])[n]3c2ccc3/C(c2ccc(C(=O)O)cc2)=C2/C=CC(=N2)\C=4c2ccc(C(=O)O)cc2)cc1 [MnTBAP, Mn(III) tetrakis(4-benzoic acid)porphirin chloride]
- effect on GT-induced ROS production ([3]; wt MEFs): significantly reduced
- effect on GT-induced N-terminal opening of Bak (Bak; wt MEFs, 1 μM GT): unaffected

Compound: CC(=O)N[C@@H](CS)C(=O)O [NAC, N-acetylcysteine]
- effect on GT-induced AIF release from mitochondria ([2]; wt MEFs, 15 mM NAC): greatly diminished
- effect on GT-induced reduction of the mitochondrial Δψm ([3]; wt MEFs, 15 mM NAC): abrogated
- effect on GT-induced ROS production ([3]; wt MEFs): significantly reduced
- effect on GT-induced PS exposure and plasma membrane permeability ([4]; wt MEFs, 15 mM NAC): abrogated
- effect on GT-induced cell death (trypan blue staining) ([5]; wt MEFs, 1 μM GT, 4 h, NAC): totally inhibited
- effect on GT-induced cell detachment ([5]; wt MEFs, 1 μM GT, 4 h, NAC): totally inhibited
- effect on GT-induced cytochrome c release from mitochondria ([6]; wt MEFs, 15 mM NAC): greatly diminished
- effect on GT-induced N-terminal opening of Bak (Bak; wt MEFs, 1 μM GT): unaffected

Compound: COC(=O)C[C@H](NC(=O)[C@H](C)NC(=O)[C@@H](NC(=O)OCc1ccccc1)C(C)C)C(=O)CF [Z-VAD.fmk] (Cbz-Val-Ala-Asp(OMe)-CH2F)
- effect on GT-induced AIF release ([2]; wt MEFs, 100 μM Z-VAD): not blocked
- effect on loss of the mitochondrial Δψm in GT-treated cells ([3]; wt MEFs, 100 μM Z-VAD.fmk): did not prevent
- effect on GT-induced annexin-V/PI staining ([4]; wt MEFs, 100 μM Z-VAD.fmk): reduced
- effect on GT-induced cell death ([5]; wt MEFs, GT 4 h, Z-VAD.fmk): reduced
- effect on GT-induced cytochrome c release ([6]; wt MEFs, 100 μM Z-VAD): not blocked
- effect on apoptosis induced by the anti-Fas antibody Jo-2 (MBL-2.Fas cells): blocked
- effect on GT-induced N-terminal opening of Bak (Bak; wt MEFs, 1 μM GT): unaffected

Compound: CN[C@@H]1C[C@H]2O[C@@](C)([C@@H]1OC)n1c3ccccc3c3c4c(c5c6ccccc6n2c5c31)C(=O)NC4 [staurosporine]
- N-terminal conformational change of Bax (Bax): led to the expected N-terminal opening of Bax
- activation of Bak (Bak; staurosporine 1 and 5 μM, MEFs): activates both Bax and Bak
